For twelve compounds, IC50 and melting point results are on record in paper PMC7934800, “Amino- and polyaminophthalazin-1(2H)-ones: synthesis, coordination properties, and biological activity” (Beilstein Journal of Organic Chemistry, 2021).

In data set [1] the test system is HT-29 (human colon adenocarcinoma cell line). The data set can be described thus: MTT cytotoxicity assay, HT-29. Type of data set: cell-based. To be noted: 72 h of cell treatment, HT-29 cells. An excerpt:
(§1) We used the MTT assay to evaluate compounds 5c, 5d, 5f, 5g, 6b, and 6d for their potential activity on cytotoxicity, proliferation and growth of HT-29 (human colon adenocarcinoma cell line), PC-3 (human prostate cancer cell line) and L-929 cells (mouse fibroblast cell line).
(§2) 2.1 Materials and methods:
(§3) Trypsin-EDTA and all media (RPMI 1640, DMEM/F-12K and IMDM) were purchased from Biowest (CytoGen, Poland). Buffered saline (PBS), penicillin-streptomycin solution stabilized, fetal bovine serum (FBS), amino acids solution (MEM), β-mercaptoethanol, dimethyl sulfoxide (DMSO) and MTT 3-(4,5-dimethylthiazol-2-yl)- […] bromide were supplied by Sigma Aldrich Chemical Co (USA).
(§4) All tested cell lines were provided by American Type Culture Collection (ATCC, […]
(§5) Rockville, Manassas,VA, USA). […]
The HT-29 cells were cultured in RPMI-1640 medium containing 2 mM L-glutamine, 10 mM HEPES, 1 mM sodium pyruvate, 4500 mg/L glucose and 1500 mg/L sodium bicarbonate, supplemented with 10% (v/v) fetal bovine serum (FBS), 1% (v/v) penicillin/streptomycin and 1% (v/v) MEM amino acid’s solution. […]
(§6) Cells were maintained in a humidified incubator at 37 °C in a 5% CO2 atmosphere and were regularly screened for mycoplasma contamination. Exponential growth of the cells was controlled by their routine passaging at 90% confluence three times a week using 0.025% trypsin/EDTA.
(§7) 2.3 Cytotoxicity analysis – MTT assay:
(§8) The viability of the cells is associated with their mitochondrial integrity and capacity.
(§9) For that reason, in the MTT microplate assay with 3-(4,5-dimethylthiazol-2-yl)-[…] bromide, first described by Mosmann [ 5], only viable cells with intact metabolism have the ability to incorporate the yellow, water-soluble tetrazolium […]
(§10) dehydrogenase to the violet-blue formazan compound. After dissolving the formazan crystals in an organic solvent, e.g., dimethyl sulfoxide (DMSO), the absorbance of the formazan solution can be measured spectrophotometrically at 570 nm.
(§11) In our research, the MTT assay was used to describe the effect of the tested compounds on cytotoxicity, proliferation and growth of HT-29, PC-3 and L-929 cells.
(§12) Before treatments with the tested compounds the suspension of 8×10^3 cells in 100 µ L medium was transferred to each well of a standard 96-well microplate. Subsequently, the plates were incubated for 24 h (5% CO 2; 37 °C) to ensure cell growth.
(§13) Afterwards, the examined substances at 10 different concentrations were added in 2– […]
(§14) volume of 100 µL medium per well. These concentrations were obtained diluting the compounds first in DMSO and then in medium, which were subsequently used to treat cells cultures in a final DMSO concentration between 0.1 and 1% per well [6] (Da Violante et. al. 2002). As control, the first and last columns were filled only with medium […]
(§15) without studied compounds. Furthermore, blanks (wells without cells) were also […]
(§16) The plates were then incubated for 72 h (37 °C; 5% CO2). Subsequently, 25 µL of fresh MTT solution (5 mg/mL in PBS) was added to each well and the microplates were incubated in a humidified atmosphere for additional 3 h (37 °C; 5% CO2). After the incubation, the MTT solution was replaced by 100 µL of DMSO in order to dissolve formazan complexes and absorbance was immediately measured (microplate reader PowerWaveXS BioTek Instruments, Inc., USA) at 570 nm.
(§17) The IC50 value (concentration of an inhibitor which reduces the absorbance level in the treated cells in comparison to untreated cells by half) representing the cytotoxicity of a substance was evaluated for each studied compound using the GraphPad Prism 7.0 software system (GraphPad Prism Software Inc., USA). To determinate statistical significance between the results one-way variance analysis (ANOVA) was used. The samples homogeneity was tested using Bartlett’s test, followed by Dunnett’s test. All data are presented as the mean of the replicates from three independent experiments, with a significance level of p ≤ 0.05.
(In general: Tetrazolium assays rely on reduction of a dye to a coloured formazan, in cell work by metabolically active cells.)

The test system of data set [2] is PC-3 (human prostate cancer cell line). As to the kind of experiment: MTT cytotoxicity assay, PC-3. Type of data set: cell-based. The following applies: 72 h of cell treatment, PC-3 cells.
Text: as §1, §2, §3, §4, §5, §6, §7, §8, §9, §10, §11, §12, §13, §14, §15, §16, §17

Data set [3] relates to L-929 cells (mouse fibroblast cell line). The data set can be described thus: MTT cytotoxicity assay, L-929. The class given is cell-based. To be noted: L929, 72 h of cell treatment, L-929 control (non-cancer) cells.
Text: as §1, §2, §3, §4, §5
In addition, the mouse fibroblast cell line
(L-929; ATCC® CCL-1™) was used as a model for non-cancer cells. […]
The L-929 was cultivated in IMDM Medium with 4 mM L-glutamine, 4500 mg/L glucose, and 1500 mg/L sodium bicarbonate supplemented with 10% (v/v) fetal bovine serum (FBS), 1% (v/v) penicillin/streptomycin and 1% (v/v) β-mercaptoethanol.
as §6, §7, §8, §9, §10, §11, §12, §13, §14, §15, §16
The IC50 value (concentration of an inhibitor which reduces the absorbance level in the treated cells in comparison to untreated cells by half) representing the cytotoxicity of a substance was evaluated for each studied compound using the GraphPad Prism 7.0 software system (GraphPad Prism Software Inc., USA). To determinate statistical significance between the results one-way variance analysis (ANOVA) was used. The samples homogeneity was tested using Bartlett’s test, followed by Dunnett’s test. All data are presented as the mean of the replicates from three independent experiments, […]

Broadly, the IC50 is the concentration that inhibits the measured activity by half. Regarding `Cn1nc(NC2CCCCC2)c2ccccc2c1=O` [5d], the half-inhibitory concentration (IC50) in data set [1] turned out to be 29.8 µM; in data set [2], 20.1 µM; in data set [3], 20.4 µM.
As usually defined, the melting point is the temperature, or range, at which the solid turns liquid. The compound `Cn1nc(N2CCOCC2)c2ccccc2c1=O` [5a] returned a melting point of 135 to 136 °C.
Same read-out and setting: the same measure for `COc1ccc(CNc2nn(C(C)C)c(=O)c3ccccc23)cc1` [5h]: 108 to 110 °C.
With `Cn1nc(N2CCCCC2)c2ccccc2c1=O` [5c], the melting point fell in the range of 92 to 93 °C. The concentration for half-maximal inhibition (IC50) in data set [1] amounted to 36.7 µM. Also, the IC50 in data set [2] was 46 µM. The IC50 in data set [3] came to 27.4 µM.
Regarding `CCCCCCNc1nn(C(C)C)c(=O)c2ccccc12` [5e], the melting point was 86 to 87 °C.
The compound `CC(C)n1nc(NCCc2cccs2)c2ccccc2c1=O` [5f] gave a melting point of 121 to 123 °C. In data set [1], this compound returned an IC50 of 27.4 µM. Also, inhibition in data set [2] was half-maximal at 27.3 µM (IC50). The compound also registered an IC50 in data set [3] of 20.1 µM.
As for `CCN(CC)CCCC(C)Nc1nn(CCN(C)C)c(=O)c2ccccc12` (centres unmarked) [6e], the melting point was 58 to 60 °C.
Regarding `CNCCNc1nn(C)c(=O)c2ccccc12` [6d], the melting point was in the range of 153 to 155 °C. For the same compound, in data set [1], the IC50 turned out to be 75.6 µM. The same compound displayed an IC50 in data set [2] of 83 µM. Besides, in data set [3], the IC50 is 52.7 µM.
The like results for `CCN(CC)CCCC(C)Nc1nn(C)c(=O)c2ccccc12` (centres unmarked) [6b] were, in that order, 84 to 86 °C, 51.6 µM, 66.3 µM and 92.9 µM.
Turning to `Cn1nc(N(c2ccccc2)c2ccccn2)c2ccccc2c1=O` [5i], the melting point was 160 to 163 °C.
Same read-out and setting: the same measure for `Cn1nc(N2CCSCC2)c2ccccc2c1=O` [5b]: 132 to 134 °C.
`Cn1nc(NCc2ccc(C(F)(F)F)cc2)c2ccccc2c1=O` [5g] returned a melting point of 216 to 218 °C. The same compound came in with an IC50 in data set [1] of 31.4 µM. The compound also showed an IC50 in data set [2] of 22.4 µM. The compound further had an IC50 in data set [3] of 21.3 µM.
